Tested on: KRAS PDC tumor spheroids (HUVEC+MSC), viability
Assay: Anticancer human tumor 254851-301-R-J1-PDC patient-derived colon carcinoma cell line growth inhibition [KRAS2]
Settings: for IC50: curve of first compound; for viability, T/C: stronger effect = lower value
Method in brief: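 KRAS-mutant tumor cells were grown as spheroids with HUVEC endothelial cells and human MSCs as stroma. Targeted agents were tested alone and with KRAS pathway inhibitors. Doses started at or near clinical Cmax, or 10 microM, descending half-log.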

[1] = second compound 0.1 µM, first compound 0.0316 µM
[2] = second compound 0.1 µM, first compound 0.1 µM
[3] = second compound 0.1 µM, first compound 0.316 µM
[4] = second compound 0.1 µM, first compound 1 µM
[5] = second compound 0.1 µM, first compound 3.16 µM
[6] = second compound 0.1 µM, first compound 10 µM
[7] = second compound 0.316 µM, first compound 0.0316 µM
[8] = second compound 0.316 µM, first compound 0.1 µM
[9] = second compound 0.316 µM, first compound 0.316 µM
[10] = second compound 0.316 µM, first compound 1 µM
[11] = second compound 0.316 µM, first compound 3.16 µM
[12] = second compound 0.316 µM, first compound 10 µM
[13] = second compound 1 µM, first compound 0.0316 µM
[14] = second compound 1 µM, first compound 0.1 µM
[15] = second compound 1 µM, first compound 0.316 µM
[16] = second compound 1 µM, first compound 1 µM
[17] = second compound 1 µM, first compound 3.16 µM
[18] = second compound 1 µM, first compound 10 µM
[19] = second compound 3.16 µM, first compound 0.0316 µM
[20] = second compound 3.16 µM, first compound 0.1 µM
[21] = second compound 3.16 µM, first compound 0.316 µM
[22] = second compound 3.16 µM, first compound 1 µM
[23] = second compound 3.16 µM, first compound 3.16 µM
[24] = second compound 3.16 µM, first compound 10 µM
[25] = second compound 10 µM, first compound 0.0316 µM
[26] = second compound 10 µM, first compound 0.1 µM
[27] = second compound 10 µM, first compound 0.316 µM
[28] = second compound 10 µM, first compound 1 µM
[29] = second compound 10 µM, first compound 3.16 µM
[30] = second compound 10 µM, first compound 10 µM
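Also: spheroids exposed to compounds for seven days before readout.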
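For viability, T/C in this document: 100% = DMSO vehicle control luminescence of the spheroids.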

SMILES | IC50 (second compound 0.1 µM) [µM] | IC50 (second compound 0.316 µM) [µM] | IC50 (second compound 1 µM) [µM] | IC50 (second compound 3.16 µM) [µM] | IC50 (second compound 10 µM) [µM] | viability, T/C [1] [%] | viability, T/C [2] [%] | viability, T/C [3] [%] | viability, T/C [4] [%] | viability, T/C [5] [%] | viability, T/C [6] [%] | viability, T/C [7] [%] | viability, T/C [8] [%] | viability, T/C [9] [%] | viability, T/C [10] [%] | viability, T/C [11] [%] | viability, T/C [12] [%] | viability, T/C [13] [%] | viability, T/C [14] [%] | viability, T/C [15] [%] | other results
COC(=O)c1ccc2c(C(=Nc3ccc(N(C)C(=O)CN4CCN(C)CC4)cc3)c3ccccc3)c(O)[nH]c2c1 + CC1OCC2(CCN(c3cnc(Sc4ccnc(N)c4Cl)c(N)n3)CC2)C1N | > 10 | > 10 | > 10 | > 10 | 2.37 | 95.4 | 100 | 96 | 95 | 90.4 | 88.6 | 88.3 | 84.5 | 79.5 | 81.8 | 82 | 78.5 | 75.6 | 76.1 | 75.6 | viability, T/C [16]: 68.1%; viability, T/C [17]: 69.2%; viability, T/C [18]: 81.6%; viability, T/C [19]: 64.9%; viability, T/C [20]: 67.5%; viability, T/C [21]: 66%; viability, T/C [22]: 65.1%; viability, T/C [23]: 55.1%; viability, T/C [24]: 63%; viability, T/C [25]: 63.5%; viability, T/C [26]: 70%; viability, T/C [27]: 57.9%; viability, T/C [28]: 60.7%; viability, T/C [29]: 41.4%; viability, T/C [30]: 41.6%
COc1cc(Nc2ncc3c(n2)-c2ccc(Cl)cc2C(c2c(F)cccc2OC)=NC3)ccc1C(=O)O + CC1OCC2(CCN(c3cnc(Sc4ccnc(N)c4Cl)c(N)n3)CC2)C1N | 0.0875 | 0.079 | 0.0764 | 0.0614 | 0.0414 | 91.7 | 39.8 | 28.8 | 24.9 | 17.1 | 7.2 | 81.1 | 37 | 28.2 | 22.6 | 13.8 | 6.88 | 86.1 | 33.1 | 29.1 | viability, T/C [16]: 23.1%; viability, T/C [17]: 14.6%; viability, T/C [18]: 7.07%; viability, T/C [19]: 70.9%; viability, T/C [20]: 30.7%; viability, T/C [21]: 23.9%; viability, T/C [22]: 21.7%; viability, T/C [23]: 12.3%; viability, T/C [24]: 5.89%; viability, T/C [25]: 58.1%; viability, T/C [26]: 23.1%; viability, T/C [27]: 21.1%; viability, T/C [28]: 19.8%; viability, T/C [29]: 13.8%; viability, T/C [30]: 6.31%
COc1cc2nccc(Oc3ccc(NC(=O)C4(C(=O)Nc5ccc(F)cc5)CC4)cc3)c2cc1OC + CC1OCC2(CCN(c3cnc(Sc4ccnc(N)c4Cl)c(N)n3)CC2)C1N | 9.27 | 9.86 | 6.69 | > 10 | 6.02 | 100 | 103 | 95.6 | 112 | 102 | 46.3 | 98.7 | 112 | 100 | 90.5 | 84.4 | 48.7 | 85.2 | 92.4 | 91.7 | viability, T/C [16]: 80.3%; viability, T/C [17]: 71.6%; viability, T/C [18]: 38.7%; viability, T/C [19]: 69.7%; viability, T/C [20]: 84.4%; viability, T/C [21]: 82.3%; viability, T/C [22]: 72.1%; viability, T/C [23]: 62.3%; viability, T/C [24]: 56.5%; viability, T/C [25]: 77.8%; viability, T/C [26]: 75.6%; viability, T/C [27]: 74.4%; viability, T/C [28]: 68.1%; viability, T/C [29]: 63.9%; viability, T/C [30]: 40.2%

Source: PubChem BioAssay AID1963868 (Molecular Pharmacology Branch, DTP, NCI, 2024)
